In US11478471B2, “Methods and compositions for treating diabetes, metabolic syndrome and other conditions” (priority 2005, dated 2022):

What was measured:
[1] = SBA for NDA 18-533; cited from earlier work
[2] = read-out: Cmax of unmetabolized ketoconazole; humans, 400 mg dose; cited from earlier work
[3] = system: P450 3A; settings: read-out: IC50, progesterone 6β hydroxylase (3A); Rotstein et al. 1992; cited from earlier work
[4] = system: Salmonella typhimurium; test: Ames assay; settings: five histidine requiring strains
[5] = system: mouse L5178Y lymphoma cells; test: Mouse lymphoma assay, thymidine kinase locus; settings: with and without S-9, up to toxic doses

Structure (SMILES)	carcinogenicity [1]	Cmax [2] [µM]	IC50 [3] [µM]	genotoxicity, Ames assay [4]	genotoxicity, mouse lymphoma assay [5]
CC(=O)N1CCN(c2ccc(OCC3COC(Cn4ccnc4)(c4ccc(Cl)cc4Cl)O3)cc2)CC1 (racemic) [Racemic ketoconazole, 1-acetyl-4-[4-[[2-(2,4-dichlorophenyl)-2-[(1H-imidazol-1-yl)-methyl]-1,3-dioxolan-4-yl]methoxy]phenyl]piperazine]	non-carcinogenic	12.3			
CC(=O)N1CCN(c2ccc(OC[C@@H]3CO[C@@](Cn4ccnc4)(c4ccc(Cl)cc4Cl)O3)cc2)CC1 [DIO-902, 2S,4R cis-1-acetyl-4-[4-[[2-(2,4-dichlorophenyl)-2-(1H-imidazol-1-ylmethyl)-1,3-dioxolan-4-yl]methoxyl]phenyl]piperazine]			1.3	negative	negative
